By CC50 is commonly meant the concentration giving 50% cytotoxicity. Usually pIC50 stands for −log10 of the IC50, conventionally taken in molar units.

A short description of data set [1]: Cytotoxicity test in HEp-2 cells (CCK8 cell viability). The data set is classed as cell-based. Conditions: human; HEp-2 cells, CCK8, 1 day; read-out: CC50. Put shortly: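 HEp-2 cells seeded at 30,000/well, cultured overnight at 37° C./5% CO2, then exposed to diluted compound for 1 day in 0.5% DMSO. Viability read by CCK8, normalised to untreated-cell and medium-only controls; CC50 from four-parameter variable-slope fit.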

The subject of a further data set is RSV A long virus strain. The data set is classed as cell-based. As to conditions: RSV A long virus strain, HEp-2 cells, plaque reduction, 1 day; read-out: IC50. Put shortly:
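HEp-2 cells (30000/well) infected with 100 PFU virus premixed 1 h with compound (8 concentrations, duplicate); after 2 h adsorption, cultured 1 day at 37 °C under 0.8% CMC overlay with compound. Plaques immunostained (RSV antibody, TrueBlue) and counted; IC50 and CC50 by non-linear fitting of % inhibition versus virus and cell controls.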

pIC50: −log10 of the molar value. Where a SMILES comes first, the peptide text is derived from it. The star is where a group is joined. Succinyl(4-O-cholesteryl) = CC(C)CCC[C@@H](C)[C@H]1CC[C@H]2[C@@H]3CC=C4C[C@@H](OC(=O)CCC(=O)*)CC[C@]4(C)[C@H]3CC[C@]12C; X1 = CC(C)CCCC(C)C1CCC2C3CC=C4CC(OC(=O)CCC(=O)*)CCC4(C)C3CCC12C

Consider `CC[C@H](C)[C@H](NC(=O)[C@H](CCCCN)NC(=O)[C@H](CCCCN)NC(=O)[C@H](CC(C)C)NC(=O)[C@H](CO)NC(=O)[C@H](CCC(=O)O)NC(=O)[C@H](CCC(=O)O)NC(=O)[C@@H](NC(=O)[C@H](CCCCN)NC(=O)[C@H](CCCCN)NC(=O)[C@H](CC(N)=O)NC(=O)[C@@H](NC(=O)[C@H](CCC(=O)O)NC(=O)[C@H](CCC(=O)O)NC(=O)[C@@H](NC(=O)[C@H](CCCCN)NC(=O)[C@H](CCCCN)NC(=O)[C@H](CC(=O)O)NC(=O)[C@H](Cc1ccccc1)NC(=O)[C@H](CCC(=O)O)NC(=O)[C@H](CC(=O)O)NC(=O)[C@H](Cc1c[nH]c2ccccc12)NC(C)=O)[C@@H](C)CC)C(C)C)[C@@H](C)CC)C(=O)N[C@@H](CCC(=O)O)C(=O)N[C@@H](CCC(=O)O)C(=O)N[C@@H](CO)C(=O)N[C@@H](CC(=O)O)C(=O)N[C@@H](CCCCN)C(=O)N[C@@H](CCCCN)C(=O)N[C@@H](CC(C)C)C(=O)N[C@@H](CCC(=O)O)C(=O)N[C@@H](C)C(=O)N[C@@H](C)C(=O)N[C@@H](C)C(=O)N[C@@H](CCCCN)C(=O)N[C@@H](CCCCNC(=O)CCC(=O)O[C@H]1CC[C@@]2(C)C(=CC[C@H]3[C@@H]4CC[C@H]([C@H](C)CCCC(C)C)[C@@]4(C)CC[C@@H]32)C1)C(N)=O` [Compound 13] (Ac-WDEFDKKIEEVNKKIEESLKKIEESDKKLEAAAKK(Succinyl(4-O-cholesteryl))-NH2), for which the CC50 at 1 day in data set [1] came out at 30.7 µM. Further, the pIC50 in the data set with RSV A long virus strain is 7.89.

With `CC[C@H](C)[C@H](NC(=O)[C@H](CCCCN)NC(=O)[C@H](CCCCN)NC(=O)[C@H](CC(C)C)NC(=O)[C@H](CO)NC(=O)[C@H](CCC(=O)O)NC(=O)[C@H](CCC(=O)O)NC(=O)[C@@H](NC(=O)[C@H](CCCCN)NC(=O)[C@H](CCCCN)NC(=O)[C@H](CC(N)=O)NC(=O)[C@@H](NC(=O)[C@H](CCC(=O)O)NC(=O)[C@H](CCC(=O)O)NC(=O)[C@@H](NC(=O)[C@H](CCCCN)NC(=O)[C@H](CCCCN)NC(=O)[C@H](CCCCN)NC(=O)[C@H](CC(=O)O)NC(=O)[C@H](Cc1ccccc1)NC(=O)[C@H](CCC(=O)O)NC(=O)[C@H](CC(=O)O)NC(C)=O)[C@@H](C)CC)C(C)C)[C@@H](C)CC)C(=O)N[C@@H](CCC(=O)O)C(=O)N[C@@H](CCC(=O)O)C(=O)N[C@@H](CO)C(=O)N[C@@H](CC(=O)O)C(=O)N[C@@H](CCCCN)C(=O)N[C@@H](CCCCN)C(=O)N[C@@H](CC(C)C)C(=O)N[C@@H](CCC(=O)O)C(=O)N[C@@H](CCC(=O)O)C(=O)N[C@H](C(=O)NCC(=O)N[C@@H](CO)C(=O)NCC(=O)N[C@@H](CO)C(=O)NCC(=O)N[C@@H](CCCCNC(=O)CCC(=O)O[C@H]1CC[C@@]2(C)C(=CC[C@H]3[C@@H]4CC[C@H]([C@H](C)CCCC(C)C)[C@@]4(C)CC[C@@H]32)C1)C(N)=O)C(C)C` [Compound 15] (Ac-DEFDKKKIEEVNKKIEESLKKIEESDKKLEEVGSGSGK(Succinyl(4-O-cholesteryl))-NH2), the cytotoxic concentration (CC50) at 1 day in data set [1] is 8.9 µM. Moreover, the pIC50 with RSV A long virus strain is 7.98.

For the compound `CC[C@H](C)[C@H](NC(=O)[C@H](CCCCN)NC(=O)[C@H](CCCCN)NC(=O)[C@H](CC(C)C)NC(=O)[C@H](CO)NC(=O)[C@H](CCC(=O)O)NC(=O)[C@H](CCC(=O)O)NC(=O)[C@@H](NC(=O)[C@H](CCCCN)NC(=O)[C@H](CCCCN)NC(=O)[C@H](CC(N)=O)NC(=O)[C@@H](NC(=O)[C@H](CCC(=O)O)NC(=O)[C@H](CCC(=O)O)NC(=O)[C@@H](NC(=O)[C@H](CCCCN)NC(=O)[C@H](CCCCN)NC(=O)[C@H](CC(=O)O)NC(=O)[C@H](Cc1ccccc1)NC(=O)[C@H](CCC(=O)O)NC(=O)[C@H](CC(=O)O)NC(=O)[C@H](CO)NC(C)=O)[C@@H](C)CC)C(C)C)[C@@H](C)CC)C(=O)N[C@@H](CCC(=O)O)C(=O)N[C@@H](CCC(=O)O)C(=O)N[C@@H](CO)C(=O)N[C@@H](CC(=O)O)C(=O)N[C@@H](CCCCN)C(=O)N[C@@H](CCCCN)C(=O)N[C@@H](CC(C)C)C(=O)N[C@@H](CCC(=O)O)C(=O)N[C@@H](C)C(=O)N[C@@H](C)C(=O)N[C@@H](C)C(=O)N[C@@H](CCCCN)C(=O)N[C@@H](CCCCNC(=O)CCC(=O)O[C@H]1CC[C@@]2(C)C(=CC[C@H]3[C@@H]4CC[C@H]([C@H](C)CCCC(C)C)[C@@]4(C)CC[C@@H]32)C1)C(N)=O` [Compound 16] (Ac-SDEFDKKIEEVNKKIEESLKKIEESDKKLEAAAKK(Succinyl(4-O-cholesteryl))-NH2), in data set [1], the half-maximal cytotoxic concentration (CC50) at 1 day was 17.1 µM. For the same compound, the negative logarithm of the IC50 (pIC50) in the data set with RSV A long virus strain was 7.99.

`CC[C@H](C)[C@H](NC(=O)[C@H](CCCCN)NC(=O)[C@H](CCCCN)NC(=O)[C@H](CC(C)C)NC(=O)[C@H](CO)NC(=O)[C@H](CCC(=O)O)NC(=O)[C@H](CCC(=O)O)NC(=O)[C@@H](NC(=O)[C@H](CCCCN)NC(=O)[C@H](CCCCN)NC(=O)[C@H](CC(N)=O)NC(=O)[C@@H](NC(=O)[C@H](CCC(=O)O)NC(=O)[C@H](CCC(=O)O)NC(=O)[C@@H](NC(=O)[C@H](CCCCN)NC(=O)[C@H](CCCCN)NC(=O)[C@H](CC(=O)O)NC(=O)[C@H](Cc1ccccc1)NC(=O)[C@H](CCC(=O)O)NC(=O)[C@H](CC(=O)O)NC(=O)[C@H](CO)NC(C)=O)[C@@H](C)CC)C(C)C)[C@@H](C)CC)C(=O)N[C@@H](CCC(=O)O)C(=O)N[C@@H](CCC(=O)O)C(=O)N[C@@H](CO)C(=O)N[C@@H](CC(=O)O)C(=O)N[C@@H](CCCCN)C(=O)N[C@@H](CCCCN)C(=O)N[C@@H](CC(C)C)C(=O)NCC(=O)N[C@@H](CO)C(=O)NCC(=O)N[C@@H](CO)C(=O)NCC(=O)N[C@@H](CCCCNC(=O)CCC(=O)O[C@H]1CC[C@@]2(C)C(=CC[C@H]3[C@@H]4CC[C@H]([C@H](C)CCCC(C)C)[C@@]4(C)CC[C@@H]32)C1)C(N)=O` [Compound 20] (Ac-SDEFDKKIEEVNKKIEESLKKIEESDKKLGSGSGK(Succinyl(4-O-cholesteryl))-NH2): in data set [1], the CC50 at 1 day is 29 µM. In addition, the negative-log IC50 (pIC50) in the data set with RSV A long virus strain was 7.70.

On to `CC[C@H](C)[C@H](NC(=O)[C@H](CCCCN)NC(=O)[C@H](CCCCN)NC(=O)[C@H](CC(C)C)NC(=O)[C@H](CO)NC(=O)[C@H](CCC(=O)O)NC(=O)[C@H](CCC(=O)O)NC(=O)[C@@H](NC(=O)[C@H](CCCCN)NC(=O)[C@H](CCCCN)NC(=O)[C@H](CC(N)=O)NC(=O)[C@@H](NC(=O)[C@H](CCC(=O)O)NC(=O)[C@H](CCC(=O)O)NC(=O)[C@@H](NC(=O)[C@H](CCCCN)NC(=O)[C@H](CCCCN)NC(=O)[C@H](CC(=O)O)NC(=O)[C@H](Cc1ccccc1)NC(=O)[C@H](CCC(=O)O)NC(=O)[C@H](CC(=O)O)NC(C)=O)[C@@H](C)CC)C(C)C)[C@@H](C)CC)C(=O)N[C@@H](CCC(=O)O)C(=O)N[C@@H](CCC(=O)O)C(=O)N[C@@H](CO)C(=O)N[C@@H](CC(=O)O)C(=O)N[C@@H](CCCCN)C(=O)N[C@@H](CCCCN)C(=O)N[C@@H](CC(C)C)C(=O)N[C@@H](CCC(=O)O)C(=O)N[C@@H](CCC(=O)O)C(=O)N[C@H](C(=O)N[C@@H](CCC(=O)O)C(=O)N[C@@H](C)C(=O)N[C@@H](C)C(=O)N[C@@H](C)C(=O)N[C@@H](CCCCN)C(=O)N[C@@H](CCCCNC(=O)CCC(=O)OC1CCC2(C)C(=CCC3C2CCC2(C)C(C(C)CCCC(C)C)CCC32)C1)C(N)=O)C(C)C` (stereo partly shown) [Compound 21] (Ac-DEFDKKIEEVNKKIEESLKKIEESDKKLEEVEAAAKK(X1)-NH2), for which the cytotoxic concentration (CC50) at 1 day in data set [1] turned out to be 18.3 µM. Moreover, in the data set with RSV A long virus strain, the pIC50 was 7.84.

For the origin of these results see patent publication US20260250325A1, “Antiviral Polypeptide Membrane Fusion Inhibitor, and Preparation Method and Application Thereof” (priority 2025, published 2026).
